Some results are limits rather than exact numbers.

The results in this text go back to patent US11058678B2 (Enanta Pharmaceuticals, Inc., priority 2018, dated 2021).

A short description of series [1]: Compound induced cellular toxicity in HepG2 cells (ATPlite 1 Step). The note with it: human, three days, 50% reduction of total ATP levels vs no drug controls. The class given is cell-based. How it is done:
At day 3, post seeding cells are treated with ATPlite 1 Step according to the manufacturer's instructions.
Background: In ATP-based viability assays light output follows the ATP content of the culture.

A further series relates to HBV (2.2.15 cells). As to the kind of experiment: Antiviral activity in 2.2.15 cells: reduction of viral product accumulation (qPCR of lysates, HBsAg or HBeAg ELISA). The class given is cell-based, hepatitis B virus (HBV). The note with it: Hepatitis B virus, 120 h, day 5 post treatment, 50% reduction of viral product accumulation in lysates or supernatants vs no drug controls, readout (qPCR, HBsAg, HBeAg) not specified. In outline:
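HBV-producing 2.2.15 cells, 35,000/well, treated with 5-fold serial compound dilutions at 0.5% final DMSO for 5 days. Lysate HBV DNA by qPCR or supernatant HBsAg/HBeAg by ELISA; EC50 is 50% reduction versus no-drug control, binned A<0.1 μM, B 0.1-1 μM, C>1 μM.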
A general note: Real-time PCR tracks product formation cycle by cycle.

In series [1], `COCCCOc1cc2c(cc1-c1coc3ccccc13)-c1cc(=O)c(C(=O)O)cn1[C@H](C(C)(C)C)C2` [Example 10, (S)-10-(benzofuran-3-yl)-6-(tert-butyl)-9-(3-methoxypropoxy)-2-oxo-6,7-dihydro-2H-pyrido[2,1-a]isoquinoline-3-carboxylic Acid] yielded a CC50 at 3 days above 25000 nM. In the series with HBV (2.2.15 cells), this compound yielded an EC50 below 100 nM.
Regarding `COCCCOc1cc2c(cc1-c1cc[nH]c1)-c1cc(=O)c(C(=O)O)cn1[C@H](C(C)(C)C)C2` [Example 11, (S)-6-(tert-butyl)-9-(3-methoxypropoxy)-2-oxo-10-(1H-pyrrol-3-yl)-6,7-dihydro-2H-pyrido[2,1-a]isoquinoline-3-carboxylic Acid], the cytotoxic concentration (CC50) at 3 days in series [1] is above 25000 nM. For the same compound, the 50% effective concentration (EC50) with HBV (2.2.15 cells) is below 100 nM.
In series [1], `COCCCOc1cc2c(cc1-c1cnc3ccccc3c1)-c1cc(=O)c(C(=O)O)cn1[C@H](C(C)(C)C)C2` [Example 12, (S)-6-(tert-butyl)-9-(3-methoxypropoxy)-2-oxo-10-(quinolin-3-yl)-6,7-dihydro-2H-pyrido[2,1-a]isoquinoline-3-carboxylic Acid] showed a CC50 at 3 days above 25000 nM. The compound further had an EC50 with HBV (2.2.15 cells) below 100 nM.
Consider `COCCCOc1cc2c(cc1-c1ccccc1F)-c1cc(=O)c(C(=O)O)cn1[C@H](C(C)(C)C)C2` [Example 13, (S)-6-(tert-butyl)-10-(2-fluorophenyl)-9-(3-methoxypropoxy)-2-oxo-6,7-dihydro-2H-pyrido[2,1-a]isoquinoline-3-carboxylic Acid], for which the 50% cytotoxic concentration (CC50) at 3 days in series [1] lay within 10000 to 25000 nM. For the same compound, the 50% effective concentration (EC50) in the series with HBV (2.2.15 cells) is below 100 nM.
Taken in the same sequence, the figures for `COCCCOc1cc2c(cc1-c1cccc(F)c1)-c1cc(=O)c(C(=O)O)cn1[C@H](C(C)(C)C)C2` [Example 14, (S)-6-(tert-butyl)-10-(3-fluorophenyl)-9-(3-methoxypropoxy)-2-oxo-6,7-dihydro-2H-pyrido[2,1-a]isoquinoline-3-carboxylic Acid] were 10000 to 25000 nM and below 100 nM.
The matching figures for `COCCCOc1cc2c(cc1-c1ccc(F)cc1)-c1cc(=O)c(C(=O)O)cn1[C@H](C(C)(C)C)C2` [Example 15, (S)-6-(tert-butyl)-10-(4-fluorophenyl)-9-(3-methoxypropoxy)-2-oxo-6,7-dihydro-2H-pyrido[2,1-a]isoquinoline-3-carboxylic Acid]: 10000 to 25000 nM and below 100 nM.
Take `COCCCOc1cc2c(cc1-c1cccc(OC)c1)-c1cc(=O)c(C(=O)O)cn1[C@H](C(C)(C)C)C2` [Example 16, (S)-6-(tert-butyl)-10-(3-methoxyphenyl)-9-(3-methoxypropoxy)-2-oxo-6,7-dihydro-2H-pyrido[2,1-a]isoquinoline-3-carboxylic Acid]: the half-maximal cytotoxic concentration (CC50) at 3 days in series [1] fell in the range of 10000 to 25000 nM. Also, in the series with HBV (2.2.15 cells), the EC50 is below 100 nM.
As for `COCCCOc1cc2c(cc1-c1ccc(OC)cc1)-c1cc(=O)c(C(=O)O)cn1[C@H](C(C)(C)C)C2` [Example 17, (S)-6-(tert-butyl)-10-(4-methoxyphenyl)-9-(3-methoxypropoxy)-2-oxo-6,7-dihydro-2H-pyrido[2,1-a]isoquinoline-3-carboxylic Acid], the CC50 at 3 days in series [1] was in the range of 10000 to 25000 nM. In the series on HBV (2.2.15 cells), the 50% effective concentration (EC50) was below 100 nM.
`COCCCOc1cc2c(cc1-c1ccnn1C)-c1cc(=O)c(C(=O)O)cn1[C@H](C(C)(C)C)C2` [Example 18, (S)-6-(tert-butyl)-9-(3-methoxypropoxy)-10-(1-methyl-1H-pyrazol-5-yl)-2-oxo-6,7-dihydro-2H-pyrido[2,1-a]isoquinoline-3-carboxylic Acid] yielded a 50% cytotoxic concentration (CC50) at 3 days in series [1] above 25000 nM. In the series on HBV (2.2.15 cells), this compound yielded a 50% effective concentration (EC50) below 100 nM.
The matching figures for `COCCCOc1cc2c(cc1-c1cc3ccccc3[nH]1)-c1cc(=O)c(C(=O)O)cn1[C@H](C(C)(C)C)C2` [Example 19, (S)-6-(tert-butyl)-10-(1H-indol-2-yl)-9-(3-methoxypropoxy)-2-oxo-6,7-dihydro-2H-pyrido[2,1-a]isoquinoline-3-carboxylic Acid]: above 25000 nM and 100 to 1000 nM.
Taken in the same sequence, the figures for `COCCCOc1cc2c(cc1-c1sc(C)nc1C)-c1cc(=O)c(C(=O)O)cn1[C@H](C(C)(C)C)C2` [Example 20, (S)-6-(tert-butyl)-10-(2,4-dimethylthiazol-5-yl)-9-(3-methoxypropoxy)-2-oxo-6,7-dihydro-2H-pyrido[2,1-a]isoquinoline-3-carboxylic Acid] were above 25000 nM and 100 to 1000 nM.
`COCCCOc1cc2c(cc1-c1c(C)oc3ccccc13)-c1cc(=O)c(C(=O)O)cn1[C@H](C(C)(C)C)C2` [Example 21, (S)-6-(tert-butyl)-9-(3-methoxypropoxy)-10-(2-methylbenzofuran-3-yl)-2-oxo-6,7-dihydro-2H-pyrido[2,1-a]isoquinoline-3-carboxylic Acid] registered a CC50 at 3 days in series [1] above 25000 nM. Further, the EC50 in the series with HBV (2.2.15 cells) was 100 to 1000 nM.
The matching figures for `COCCCOc1cc2c(cc1-c1ccc(F)cc1F)-c1cc(=O)c(C(=O)O)cn1[C@H](C(C)(C)C)C2` [Example 22, (S)-6-(tert-butyl)-10-(2,4-difluorophenyl)-9-(3-methoxypropoxy)-2-oxo-6,7-dihydro-2H-pyrido[2,1-a]isoquinoline-3-carboxylic Acid]: above 25000 nM and 100 to 1000 nM.
On to `COCCCOc1cc2c(cc1-c1cccc(F)c1F)-c1cc(=O)c(C(=O)O)cn1[C@H](C(C)(C)C)C2` [Example 23, (S)-6-(tert-butyl)-10-(2,3-difluorophenyl)-9-(3-methoxypropoxy)-2-oxo-6,7-dihydro-2H-pyrido[2,1-a]isoquinoline-3-carboxylic Acid], for which the CC50 at 3 days in series [1] is above 25000 nM. The compound further had an EC50 in the series with HBV (2.2.15 cells) of 100 to 1000 nM.
In series [1], `COCCCOc1cc2c(cc1-c1ccc3c(c1)OCCN3C)-c1cc(=O)c(C(=O)O)cn1[C@H](C(C)(C)C)C2` [Example 24, (S)-6-(tert-butyl)-9-(3-methoxypropoxy)-10-(4-methyl-3,4-dihydro-2H-benzo[b][1,4]oxazin-7-yl)-2-oxo-6,7-dihydro-2H-pyrido[2,1-a]isoquinoline-3-carboxylic Acid] registered a cytotoxic concentration (CC50) at 3 days above 25000 nM. This compound registered a 50% effective concentration (EC50) in the series on HBV (2.2.15 cells) of 100 to 1000 nM.
With `COCCCOc1cc2c(cc1-c1nc3ccccc3o1)-c1cc(=O)c(C(=O)O)cn1[C@H](C(C)(C)C)C2` [Example 25, (S)-10-(benzo[d]oxazol-2-yl)-6-(tert-butyl)-9-(3-methoxypropoxy)-2-oxo-6,7-dihydro-2H-pyrido[2,1-a]isoquinoline-3-carboxylic Acid], the CC50 at 3 days in series [1] is above 25000 nM. Moreover, in the series on HBV (2.2.15 cells), the concentration giving a half-maximal response (EC50) is 100 to 1000 nM.
The matching figures for `COCCCOc1cc2c(cc1-c1nc(C(F)(F)F)co1)-c1cc(=O)c(C(=O)O)cn1[C@H](C(C)(C)C)C2` [Example 26, (S)-6-(tert-butyl)-9-(3-methoxypropoxy)-2-oxo-10-(4-(trifluoromethyl)oxazol-2-yl)-6,7-dihydro-2H-pyrido[2,1-a]isoquinoline-3-carboxylic Acid]: above 25000 nM and 100 to 1000 nM.
Taken in the same sequence, the figures for `COCCCOc1cc2c(cc1-c1ocnc1C(F)(F)F)-c1cc(=O)c(C(=O)O)cn1[C@H](C(C)(C)C)C2` [Example 27, (S)-6-(tert-butyl)-9-(3-methoxypropoxy)-2-oxo-10-(4-(trifluoromethyl)oxazol-5-yl)-6,7-dihydro-2H-pyrido[2,1-a]isoquinoline-3-carboxylic Acid] were above 25000 nM and 100 to 1000 nM.
The matching figures for `COCCCOc1cc2c(cc1-n1cccn1)-c1cc(=O)c(C(=O)O)cn1[C@H](C(C)(C)C)C2` [Example 28, (S)-6-(tert-butyl)-9-(3-methoxypropoxy)-2-oxo-10-(1H-pyrazol-1-yl)-6,7-dihydro-2H-pyrido[2,1-a]isoquinoline-3-carboxylic Acid]: above 25000 nM and 100 to 1000 nM.
Turning to `COCCCOc1cc2c(cc1C1=CCCCO1)-c1cc(=O)c(C(=O)O)cn1[C@H](C(C)(C)C)C2` [Example 29, (S)-6-(tert-butyl)-10-(3,4-dihydro-2H-pyran-6-yl)-9-(3-methoxypropoxy)-2-oxo-6,7-dihydro-2H-pyrido[2,1-a]isoquinoline-3-carboxylic Acid], the CC50 at 3 days in series [1] was above 25000 nM. Moreover, the EC50 with HBV (2.2.15 cells) lay in the range of 100 to 1000 nM.
Taken in the same sequence, the figures for `CC(C)(C)[C@@H]1Cc2c(cc(N3CC(F)(F)C3)c3c2CCO3)-c2cc(=O)c(C(=O)O)cn21` [Example 30, (S)-5-(tert-butyl)-12-(3,3-difluoroazetidin-1-yl)-9-oxo-2,3,4,9-tetrahydro-5H-furo[3,2-f]pyrido[2,1-a]isoquinoline-8-carboxylic Acid] were above 25000 nM and below 100 nM.
The matching figures for `COCCCOc1cc2c(cc1C1=COCC1)-c1cc(=O)c(C(=O)O)cn1[C@H](C(C)(C)C)C2` [Example 46, (S)-6-(tert-butyl)-10-(4,5-dihydrofuran-3-yl)-9-(3-methoxypropoxy)-2-oxo-6,7-dihydro-2H-pyrido[2,1-a]isoquinoline-3-carboxylic Acid]: above 25000 nM and below 100 nM.
As to `COCCCOc1cc2c(cc1-c1ccc(F)cc1)-c1cc(=O)c(C(=O)O)cn1[C@H]1[C@@H]2CCC1(C)C` [Example 59], the CC50 at 3 days in series [1] is 10000 to 25000 nM. In the series with HBV (2.2.15 cells), this compound registered a half-maximal effective concentration (EC50) below 100 nM.
The matching figures for `COCCCOc1cc2c(cc1-c1ccoc1)-c1cc(=O)c(C(=O)O)cn1[C@H]1[C@@H]2CCC1(C)C` [Example 60, (3aS,12bR)-10-(furan-3-yl)-11-(3-methoxypropoxy)-3,3-dimethyl-7-oxo-1,2,3,3a,7,12b-hexahydrocyclopenta[c]pyrido[2,1-a]isoquinoline-6-carboxylic Acid]: 10000 to 25000 nM and below 100 nM.

By CC50 is commonly meant the concentration that lowers cell viability or growth by half. Usually EC50 stands for the concentration needed to bring the measured effect to its halfway point. A low value points to a more potent agent.
